This passage reports IC50 results from patent publication US20260184707A1, “PHARMACEUTICAL COMPOUNDS FOR THE TREATMENT OF COMPLEMENT MEDIATED DISORDERS” (ALEXION PHARMACEUTICALS, INC., priority 2022, published 2026).

The experiment concerns the target T1, Human complement C1s enzyme (Homo sapiens, UniProt P09871).
T1 construct: purified from human serum, Complement Technology, Inc; purchased Complement Technology, Inc; host or cells: human serum (plasma-derived native protein)
T1 sequence (P09871 438-688 limits assumed): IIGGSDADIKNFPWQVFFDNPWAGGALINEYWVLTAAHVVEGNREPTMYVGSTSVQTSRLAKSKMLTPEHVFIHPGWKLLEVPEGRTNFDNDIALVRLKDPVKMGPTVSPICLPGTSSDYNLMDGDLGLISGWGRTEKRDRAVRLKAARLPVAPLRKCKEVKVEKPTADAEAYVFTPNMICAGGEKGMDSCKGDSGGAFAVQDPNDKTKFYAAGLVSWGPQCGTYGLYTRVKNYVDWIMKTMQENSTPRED
T1 sequence (P09871 16-437 partner limits assumed): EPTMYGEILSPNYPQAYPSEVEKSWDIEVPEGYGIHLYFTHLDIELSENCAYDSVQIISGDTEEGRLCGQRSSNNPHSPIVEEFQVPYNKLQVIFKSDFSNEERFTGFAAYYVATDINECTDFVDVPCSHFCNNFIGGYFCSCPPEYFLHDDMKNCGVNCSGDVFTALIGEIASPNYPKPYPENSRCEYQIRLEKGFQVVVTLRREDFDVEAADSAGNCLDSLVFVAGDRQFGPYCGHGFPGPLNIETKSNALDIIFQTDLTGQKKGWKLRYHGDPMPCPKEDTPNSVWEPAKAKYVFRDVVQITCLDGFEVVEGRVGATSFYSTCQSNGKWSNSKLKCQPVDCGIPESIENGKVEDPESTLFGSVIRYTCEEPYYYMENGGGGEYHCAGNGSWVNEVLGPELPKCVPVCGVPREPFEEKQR
The experiment is described as follows: Human C1s enzyme assay. It is filed as biochemical. To be noted: human complement C1s enzyme 1.16 nM, substrate Z-L-Lys-SBzl, A405; read-out: IC50 (Stars). The method, boiled down: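 Thioesterase activity followed colorimetrically (DTNB, A405, 30-s reads) using 100 μM Z-L-Lys-SBzl substrate. Enzyme, human serum-derived C1s at 1.16 nM final, was incubated with test compound for 5 min, room temperature, pH 7.5 Tris buffer with 1 M NaCl. Rate-versus-concentration data fitted by nonlinear regression for IC50.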

Structures are written as SMILES.

Usually IC50 stands for the concentration needed to halve the response being measured. As for `C[C@@H](Nc1c[nH]c(=O)n(CC(=O)NCc2cc3cnccc3[nH]2)c1=O)c1ccc2oc3ccccc3c2c1` [Compound 338, (R)-N-((1H-pyrrolo[3,2-c]pyridin-2-yl)methyl)-2-(5-((1-(dibenzo[b,d]furan-2-yl)ethyl)-amino)-2,6-dioxo-3,6-dihydro-pyrimidin-1(2H)-yl)acetamide], the IC50 is 0.1 to 1 µM.
Take `C[C@@H](Nc1cnc(-c2cscn2)n(CC(=O)NCc2cc3cnccc3[nH]2)c1=O)c1ccc2oc3ccccc3c2c1` [Compound 339, (R)-N-((1H-pyrrolo[3,2-c]pyridin-2-yl)methyl)-2-(5-((1-(dibenzo[b,d]furan-2-yl)ethyl)-amino)-6-oxo-2-(thiazol-4-yl)-pyrimidin-1(6H)-yl)acetamide]: the 50% inhibitory concentration (IC50) is under 0.1 µM.
Next, `C[C@@H](Nc1cnc(-c2nccs2)n(CC(=O)NCc2cc3cnccc3[nH]2)c1=O)c1ccc2oc3ccccc3c2c1` [Compound 340, (R)-N-((1H-pyrrolo[3,2-c]pyridin-2-yl)methyl)-2-(5-((1-(dibenzo[b,d]furan-2-yl)ethyl)-amino)-6-oxo-2-(thiazol-2-yl)-pyrimidin-1(6H)-yl)acetamide]: 0.1 to 1 µM; `CC(C)c1ncc(N[C@H](C)c2ccc3oc4ccccc4c3c2)c(=O)n1CC(=O)NCc1cc2cnccc2[nH]1` [Compound 341, (R)—N-((1H-pyrrolo[3,2-c]pyridine-2-yl)methyl)-2-(5-((1-(dibenzo[b,d]furan-2-yl)ethyl)amino)-2-isopropyl-6-oxopyrimidin-1(6H)-yl)acetamide]: 0.1 to 1 µM.
Take `C[C@@H](Nc1cnc(C2CC2)n(CC(=O)NCc2cc3cnccc3[nH]2)c1=O)c1ccc2oc3ccccc3c2c1` [Compound 342, (R)-N-((1H-pyrrolo[3,2-c]pyridin-2-yl)methyl)-2-(2-cyclopropyl-5-((1-(dibenzo [b,d]furan-2-yl)ethyl)amino)-6-oxo-pyrimidin-1(6H)-yl)-acetamide]: the IC50 is 0.1 to 1 µM.
For `C[C@@H](Nc1cnc(OC2CC2)n(CC(=O)NCc2cc3cnccc3[nH]2)c1=O)c1ccc2oc3ccccc3c2c1` [Compound 343, (R)—N-((1H-pyrrolo[3,2-c]pyridine-2-yl)methyl)-2-(2-cyclopropoxy-5-((1-(dibenzo[b,d]furan-2-yl)ethyl)amino)-6-oxopyrimidin-1(6H)-yl)acetamide] the value was 0.1 to 1 µM; for `C[C@@H](Nc1cnc(N2CCOCC2)n(CC(=O)NCc2cc3cnccc3[nH]2)c1=O)c1ccc2oc3ccccc3c2c1` [Compound 344, (R)-N-((1H-pyrrolo[3,2-c]pyridin-2-yl)methyl)-2-(5-((1-(dibenzo[b,d]furan-2-yl)ethyl)-amino)-2-morpholino-6-oxo-pyrimidin-1(6H)-yl)acetamide], under 0.1 µM; for `C[C@@H](Nc1cnc(-c2ccc(S(F)(F)(F)(F)F)cc2)n(CC(=O)NCc2cc3cnccc3[nH]2)c1=O)c1ccc2oc3ccccc3c2c1` [Compound 345, (R)-N-((1H-pyrrolo[3,2-c]pyridin-2-yl)methyl)-2-(5-((1-(dibenzo[b,d]furan-2-yl)ethyl)-amino)-6-oxo-2-(4-(penta-fluoro-lambda6-sulfaneyl)-phenyl)pyrimidin-1(6H)-yl)-acetamide], under 0.1 µM.
Next, `C[C@@H](Nc1cncn(CC(=O)NCc2cc3cnccc3[nH]2)c1=O)c1ccc2c(c1)-c1ccccc1C2(F)F` [Compound 346, (R)-N-((1H-pyrrolo[3,2-c]pyridin-2-yl)methyl)-2-(5-((1-(9,9-difluoro-9H-fluoren-3-yl)-ethyl)amino)-6-oxopyrimidin-1(6H)-yl)acetamide]: 0.1 to 1 µM; `C[C@@H](Nc1cnc(-c2ccccc2)n(CC(=O)NCc2cc3cnccc3[nH]2)c1=O)c1coc(-c2ccccc2)n1` [Compound 347, (R)-N-((1H-pyrrolo[3,2-c]pyridin-2-yl)methyl)-2-(6-oxo-2-phenyl-5-((1-(2-phenyloxa-zol-4-yl)ethyl)amino)pyrimi-din-1(6H)-yl)acetamide]: under 0.1 µM; `C[C@@H](Nc1ncc(-c2ccccc2)n(CC(=O)NCc2cc3cnccc3[nH]2)c1=O)c1ccc2oc3ccccc3c2c1` [Compound 348, (R)-N-((1H-pyrrolo[3,2-c]pyridin-2-yl)methyl)-2-(3-((1-(dibenzo[b,d]furan-2-yl)ethyl)-amino)-2-oxo-6-phenylpyr-azin-1(2H)-yl)acetamide]: under 0.1 µM.
For `Cc1cnc(N[C@H](C)c2ccc3oc4ccccc4c3c2)c(=O)n1CC(=O)NCc1cc2cnccc2[nH]1` [Compound 349, (R)-N-((1H-pyrrolo[3,2-c]pyridin-2-yl)methyl)-2-(3-((1-(dibenzo[b,d]furan-2-yl)ethyl)-amino)-6-methyl-2-oxopyr-azin-1(2H)-yl)acetamide] the value was under 0.1 µM.
With `C[C@@H](Nc1cnc(-c2ccccc2F)n(CC(=O)NCc2cc3cnccc3[nH]2)c1=O)c1ccc2c(c1)oc1ccccc12` [Compound 350, (R)—N-((1H-pyrrolo[3,2-c]pyridine-2-yl)methyl)-2-(5-((1-(dibenzo[b,d]furan-3-yl)ethyl)amino)-2-(2-fluorophenyl)-6-oxopyrimidin-1(6H)-yl)acetamide], the 50% inhibitory concentration (IC50) is under 0.1 µM.
For `C[C@@H]1CN(c2ncc(N[C@H](C)c3ccc4oc5ccccc5c4c3)c(=O)n2CC(=O)NCc2cc3cnccc3[nH]2)C[C@@H](C)O1` [Compound 355, N-((1H-pyrrolo[3,2-c]pyridin-2-yl)methyl)-2-(5-(((R)-1-(dibenzo[b,d]furan-2-yl)ethyl)-amino)-2-((2R,6R)-2,6-dimeth-ylmorpholino)-6-oxopyrimidin-1(6H)-yl)acetamide] the value was 0.1 to 1 µM.
For `Cc1ccccc1-c1ncc(N[C@H](C)c2ccc3oc4ccccc4c3c2)c(=O)n1CC(=O)NCc1cc2cnccc2[nH]1` [Compound 356, 2-[5-[[(1R)-1-dibenzofuran-2-ylethyl]amino]-2-(o-tolyl)-6-oxo-pyrimidin-1-yl]-N-(1H-pyrrolo[3,2-c]pyridine-2-ylmethyl)acetamide] the value was over 1 µM.
Next, `C[C@@H](Nc1cnc(-c2cncs2)n(CC(=O)NCc2cc3cnccc3[nH]2)c1=O)c1ccc2oc3ccccc3c2c1` [Compound 358, (R)-N-((1H-pyrrolo[3,2-c]pyridin-2-yl)methyl)-2-(5-((1-(dibenzo[b,d]furan-2-yl)ethyl)-amino)-6-oxo-2-(thiazol-5-yl)-pyrimidin-1(6H)-yl)acetamide]: under 0.1 µM; `C[C@@H](Nc1cnc(-c2ccccc2)n(CC(=O)NCc2cc3cnccc3[nH]2)c1=O)c1ccc2c(c1)-c1ccccc1C2(F)F` [Compound 359, (R)-N-((1H-pyrrolo[3,2-c]pyridin-2-yl)methyl)-2-(5-((1-(9,9-difluoro-9H-fluoren-3-yl)-ethyl)amino)-6-oxo-2-phenyl-pyrimidin-1(6H)-yl)acetamide]: under 0.1 µM.
Consider `C[C@@H](Nc1cnc(-c2cn[nH]c2)n(CC(=O)NCc2cc3cnccc3[nH]2)c1=O)c1ccc2oc3ccccc3c2c1` [Compound 360, (R)—N-((1H-pyrrolo[3,2-c]pyridin-2-yl)methyl)-2-(5-((1-(dibenzo[b,d]furan-2-yl)ethyl)amino)-6-oxo-2-(1H-pyrazol-4-yl)pyrimidin-1(6H)-yl)acetamide], for which the IC50 was under 0.1 µM.
